Where two headings read alike, the source gives them in different places.

Remaining activity data for 3 compounds are collected here from paper PMC10824666 (Nature Cancer, 2023).

Common to all, as to experiment: biochemical
Parameters in all cases: Eurofins DiscoverX kinase panel, competitive binding assay at 1 uM, percent of DMSO control
Common to all, as to conditions: competitive binding, percent of DMSO control

One experiment has as its target T1, Plk 1 (Homo sapiens, UniProt P53350).
T1 construct: gene PLK1
The protocol:
(§1) Extended Data Fig. 3 In vitro characterization of potent and selective KIF18A inhibitors. a, KIF18A compounds (1 µM) were assessed across a panel of kinases (n = 96) by a competitive binding assay. Graph presented as percentage of control (POC); dashed line indicates POC value of 30 (n = 1 experiment). b, Tubulin polymerization analysis. Profile of KIF18A compounds (10 µM) relative to DMSO, paclitaxel (5 µM, tubulin stabilizer), or nocodazole (5 µM, tubulin destabilizer). Graphs presented as tubulin fluorescence signal at 440 nm expressed as arbitrary units (a.u.) versus time (min) with area-under-the-curve (AUC) values (n = 1 or 3 independent experiments). c, Mitotic spindle image analysis. […] Representative images were captured with x40 objective (scale bar = 10 µm) (n = 1 experiment). d-f, KIF18A compound effects on HeLa cells. d, Cells were treated for 96 h with DMSO or KIF18A compounds at the indicated concentrations. KIF18A compound concentration-response profiles presented as count relative to the percentage of DMSO control (POC) with count EC50 values (n = 2 independent experiments in duplicate). e, KIF18A protein localization in cells after treatment for 6 hours with DMSO or AM-1882 (0.05 µM). Cells stained to detect DNA, KIF18A, and centrin-3. Representative images of mitotic cells (n = 3 per group) were captured with x60 objective (scale bar = 5 µm) and graphs of line scan measurements were obtained for DNA, KIF18A, and centrin-3 channels expressed as fluorescence intensity (a.u.) versus distance (µm) (n = 1 experiment). f, Mitotic cell fate imaging analysis. HeLa Kyoto cells co-expressing α-tubulin-EGFP and H2B-mCherry proteins released from a G1S block in media containing DMSO or AM-1882 (0.2 µM). Analysis was performed on cells entering the first mitosis (n = 40 cells per group). Graph presented as time in mitosis (h) versus mitotic cell fate, either complete cell division (CCD) or death in mitosis (DiM). Classified cells exiting mitosis by the number of daughter cells and cell death in […] We screened a small-molecule library of diverse compounds for selective inhibitors of KIF18A MT-ATPase motor activity. Two compound hits were discovered that phenocopied the effects of KIF18A KD in cells; these hits are structurally distinct from the KIF18A inhibitor BTB-1 (refs. [27],[28]). […] However, the potency of the KIF18A inhibitors was unaffected by varying ATP and MT concentrations (Extended Data Fig. 2d). This supports our proposed model in which KIF18A inhibitors occupy an allosteric pocket formed by motor helices α4 and α6 close to the motor MT-binding surface. To screen for potential off-target interactions with essential mitotic kinases, three of the KIF18A compounds were profiled against a large panel of kinases. […] We next investigated whether our KIF18A inhibitors affected tubulin polymerization in vitro in the absence of the KIF18A motor. All four KIF18A compounds had tubulin-polymerization profiles similar to that of the DMSO control and distinct from those of the paclitaxel (MT stabilizer) and nocodazole (MT destabilizer) co

Another experiment has as its target c-MET (Homo sapiens, UniProt P08581). The protocol:
as §1

The target in the next experiment is RPS6KB1 (Homo sapiens, UniProt P23443). The protocol:
as §1

Another experiment has as its target BMPR1A (Homo sapiens, UniProt P36894). The protocol: as §1
For the next experiment, the target named is TNIK (Homo sapiens, UniProt Q9UKE5). The protocol: as §1
The target of the next experiment is Fyn (Homo sapiens, UniProt P06241). The protocol:
as §1

For another experiment, the target named is DYRK1a (Homo sapiens, UniProt Q13627). The protocol:
as §1

The target in a further experiment is PDGFRB (Homo sapiens, UniProt P09619). The protocol:
as §1

In a further experiment the target is Syk (Homo sapiens, UniProt P43405). The protocol: as §1
The target of another experiment is T2, MEK5 (Homo sapiens, UniProt Q13163).
T2 construct: gene MAP2K5
T2 sequence (Q13163 1-448): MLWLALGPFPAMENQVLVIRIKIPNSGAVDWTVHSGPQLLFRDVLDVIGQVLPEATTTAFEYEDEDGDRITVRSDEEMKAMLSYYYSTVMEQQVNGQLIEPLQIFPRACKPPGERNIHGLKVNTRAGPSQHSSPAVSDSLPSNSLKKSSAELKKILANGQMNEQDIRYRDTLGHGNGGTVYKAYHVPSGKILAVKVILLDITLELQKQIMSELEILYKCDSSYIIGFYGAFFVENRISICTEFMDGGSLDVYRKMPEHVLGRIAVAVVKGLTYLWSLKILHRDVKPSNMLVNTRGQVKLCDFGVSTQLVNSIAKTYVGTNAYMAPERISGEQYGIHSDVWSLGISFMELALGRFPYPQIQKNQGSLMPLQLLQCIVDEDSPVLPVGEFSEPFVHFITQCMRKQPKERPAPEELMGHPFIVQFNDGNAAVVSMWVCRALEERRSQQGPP
The protocol:
as §1

Setting [1] is: read-out: Kinome Profiling performed by Eurofins DiscoverX / AM-0277, 1.0 µM / POC.
Setting [2] is: read-out: Kinome Profiling performed by Eurofins DiscoverX / AM-1882, 1.0 µM / POC.
Setting [3] is: read-out: Kinome Profiling performed by Eurofins DiscoverX / AM-5308, 1.0 µM / POC.

Chain of Fyn (P06241 whole entry): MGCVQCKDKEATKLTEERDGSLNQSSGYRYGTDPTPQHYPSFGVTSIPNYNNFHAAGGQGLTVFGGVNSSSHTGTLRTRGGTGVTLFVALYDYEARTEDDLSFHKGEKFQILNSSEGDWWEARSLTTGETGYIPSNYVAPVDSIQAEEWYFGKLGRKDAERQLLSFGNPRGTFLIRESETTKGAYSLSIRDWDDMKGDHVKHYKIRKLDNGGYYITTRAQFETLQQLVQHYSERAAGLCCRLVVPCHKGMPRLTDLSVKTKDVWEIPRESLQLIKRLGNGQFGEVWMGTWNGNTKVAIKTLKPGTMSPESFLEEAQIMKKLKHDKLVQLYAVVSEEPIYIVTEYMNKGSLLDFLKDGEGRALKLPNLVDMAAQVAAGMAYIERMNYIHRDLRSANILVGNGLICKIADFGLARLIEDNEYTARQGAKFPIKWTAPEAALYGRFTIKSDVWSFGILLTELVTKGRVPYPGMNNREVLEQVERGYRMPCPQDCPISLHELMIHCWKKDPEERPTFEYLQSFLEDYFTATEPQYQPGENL
Chain of BMPR1A (P36894 whole entry): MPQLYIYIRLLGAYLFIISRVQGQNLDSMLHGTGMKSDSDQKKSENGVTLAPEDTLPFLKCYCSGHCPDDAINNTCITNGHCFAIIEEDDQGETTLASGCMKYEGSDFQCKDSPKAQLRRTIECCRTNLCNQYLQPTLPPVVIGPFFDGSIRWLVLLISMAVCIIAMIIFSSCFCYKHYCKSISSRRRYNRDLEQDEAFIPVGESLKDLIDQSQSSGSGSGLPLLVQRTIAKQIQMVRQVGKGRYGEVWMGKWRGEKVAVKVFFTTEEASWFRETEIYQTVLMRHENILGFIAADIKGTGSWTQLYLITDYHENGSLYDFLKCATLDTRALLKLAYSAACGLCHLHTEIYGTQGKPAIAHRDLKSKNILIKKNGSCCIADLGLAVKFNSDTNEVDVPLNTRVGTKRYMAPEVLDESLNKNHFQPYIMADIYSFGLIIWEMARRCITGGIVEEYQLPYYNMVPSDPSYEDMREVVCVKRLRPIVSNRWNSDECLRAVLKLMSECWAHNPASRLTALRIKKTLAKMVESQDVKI
Chain of PDGFRB (P09619 whole entry): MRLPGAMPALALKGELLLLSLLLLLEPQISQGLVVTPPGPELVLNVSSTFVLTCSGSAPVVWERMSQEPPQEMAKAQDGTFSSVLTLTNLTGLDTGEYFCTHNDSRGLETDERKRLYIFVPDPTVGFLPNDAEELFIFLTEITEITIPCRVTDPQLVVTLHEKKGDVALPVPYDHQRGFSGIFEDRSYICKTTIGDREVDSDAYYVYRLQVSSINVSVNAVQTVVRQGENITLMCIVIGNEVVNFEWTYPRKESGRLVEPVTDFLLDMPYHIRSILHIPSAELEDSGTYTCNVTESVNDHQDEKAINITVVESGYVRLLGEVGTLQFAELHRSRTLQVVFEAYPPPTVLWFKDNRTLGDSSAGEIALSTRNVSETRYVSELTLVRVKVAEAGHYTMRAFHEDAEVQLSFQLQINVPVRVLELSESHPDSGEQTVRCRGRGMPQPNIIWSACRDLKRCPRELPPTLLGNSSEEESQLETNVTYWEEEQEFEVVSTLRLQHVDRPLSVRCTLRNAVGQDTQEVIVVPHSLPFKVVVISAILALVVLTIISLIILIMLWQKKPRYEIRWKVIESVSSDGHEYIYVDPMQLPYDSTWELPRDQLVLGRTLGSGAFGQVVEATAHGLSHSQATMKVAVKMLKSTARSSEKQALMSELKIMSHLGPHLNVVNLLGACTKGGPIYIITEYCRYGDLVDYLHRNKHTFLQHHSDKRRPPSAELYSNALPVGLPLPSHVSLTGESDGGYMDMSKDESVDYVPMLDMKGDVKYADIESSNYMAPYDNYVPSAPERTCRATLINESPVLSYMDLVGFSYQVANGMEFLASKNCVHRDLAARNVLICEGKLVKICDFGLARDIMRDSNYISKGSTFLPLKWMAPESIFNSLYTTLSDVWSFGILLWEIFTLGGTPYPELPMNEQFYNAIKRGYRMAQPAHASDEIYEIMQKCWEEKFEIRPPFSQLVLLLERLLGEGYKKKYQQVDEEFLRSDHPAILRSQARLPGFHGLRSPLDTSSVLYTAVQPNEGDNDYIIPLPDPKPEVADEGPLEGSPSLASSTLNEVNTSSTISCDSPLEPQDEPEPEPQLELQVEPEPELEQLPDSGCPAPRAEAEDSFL
Chain of TNIK (Q9UKE5 whole entry): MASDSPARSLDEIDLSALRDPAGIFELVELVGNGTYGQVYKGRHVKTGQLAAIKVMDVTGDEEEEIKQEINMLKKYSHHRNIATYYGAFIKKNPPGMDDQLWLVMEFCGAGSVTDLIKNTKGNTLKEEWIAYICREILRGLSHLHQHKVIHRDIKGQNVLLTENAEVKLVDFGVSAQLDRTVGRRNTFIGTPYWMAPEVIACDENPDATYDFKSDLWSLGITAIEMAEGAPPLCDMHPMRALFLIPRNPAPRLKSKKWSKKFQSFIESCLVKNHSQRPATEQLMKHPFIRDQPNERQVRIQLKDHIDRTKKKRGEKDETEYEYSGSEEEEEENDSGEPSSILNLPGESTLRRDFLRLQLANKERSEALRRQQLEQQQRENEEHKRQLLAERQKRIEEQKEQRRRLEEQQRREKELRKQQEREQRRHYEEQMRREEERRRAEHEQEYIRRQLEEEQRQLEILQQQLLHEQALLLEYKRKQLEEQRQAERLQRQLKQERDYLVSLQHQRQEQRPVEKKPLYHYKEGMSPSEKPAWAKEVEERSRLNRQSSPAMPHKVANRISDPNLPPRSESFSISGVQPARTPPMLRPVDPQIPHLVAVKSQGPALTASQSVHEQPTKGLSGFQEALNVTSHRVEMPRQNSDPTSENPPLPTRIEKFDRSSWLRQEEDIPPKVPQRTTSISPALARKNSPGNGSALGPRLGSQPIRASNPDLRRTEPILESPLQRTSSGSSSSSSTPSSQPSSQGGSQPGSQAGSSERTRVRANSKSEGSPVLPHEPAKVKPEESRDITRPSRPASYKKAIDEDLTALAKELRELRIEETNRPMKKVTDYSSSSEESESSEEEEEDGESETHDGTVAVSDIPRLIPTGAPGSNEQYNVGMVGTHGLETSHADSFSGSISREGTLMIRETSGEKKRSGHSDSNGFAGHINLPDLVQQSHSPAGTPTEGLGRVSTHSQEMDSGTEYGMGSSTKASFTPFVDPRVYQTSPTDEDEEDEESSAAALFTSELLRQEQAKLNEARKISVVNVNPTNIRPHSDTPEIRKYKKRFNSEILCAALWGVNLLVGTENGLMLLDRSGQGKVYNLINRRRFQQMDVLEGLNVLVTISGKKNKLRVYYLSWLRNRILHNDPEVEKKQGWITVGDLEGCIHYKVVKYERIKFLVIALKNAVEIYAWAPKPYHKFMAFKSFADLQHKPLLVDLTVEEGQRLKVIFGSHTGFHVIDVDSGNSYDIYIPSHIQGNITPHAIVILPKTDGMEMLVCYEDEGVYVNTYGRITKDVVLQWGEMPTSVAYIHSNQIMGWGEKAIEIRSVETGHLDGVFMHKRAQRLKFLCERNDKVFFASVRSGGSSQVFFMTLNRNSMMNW
T1 sequence (P53350 whole entry): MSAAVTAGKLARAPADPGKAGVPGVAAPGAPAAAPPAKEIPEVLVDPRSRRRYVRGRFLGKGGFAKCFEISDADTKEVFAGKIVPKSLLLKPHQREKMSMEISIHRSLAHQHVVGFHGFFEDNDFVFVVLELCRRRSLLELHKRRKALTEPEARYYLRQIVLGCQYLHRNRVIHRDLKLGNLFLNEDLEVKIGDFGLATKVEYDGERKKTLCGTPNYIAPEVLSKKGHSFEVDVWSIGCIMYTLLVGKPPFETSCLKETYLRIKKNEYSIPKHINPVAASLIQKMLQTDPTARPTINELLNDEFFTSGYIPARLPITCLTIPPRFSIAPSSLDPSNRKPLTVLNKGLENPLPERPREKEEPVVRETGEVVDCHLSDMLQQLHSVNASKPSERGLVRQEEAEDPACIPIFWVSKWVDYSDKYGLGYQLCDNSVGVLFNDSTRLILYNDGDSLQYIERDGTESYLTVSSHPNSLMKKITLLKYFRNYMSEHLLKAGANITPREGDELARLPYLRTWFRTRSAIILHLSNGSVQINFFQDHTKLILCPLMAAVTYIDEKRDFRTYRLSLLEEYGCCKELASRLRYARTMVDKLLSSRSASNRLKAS
Chain of RPS6KB1 (P23443 whole entry): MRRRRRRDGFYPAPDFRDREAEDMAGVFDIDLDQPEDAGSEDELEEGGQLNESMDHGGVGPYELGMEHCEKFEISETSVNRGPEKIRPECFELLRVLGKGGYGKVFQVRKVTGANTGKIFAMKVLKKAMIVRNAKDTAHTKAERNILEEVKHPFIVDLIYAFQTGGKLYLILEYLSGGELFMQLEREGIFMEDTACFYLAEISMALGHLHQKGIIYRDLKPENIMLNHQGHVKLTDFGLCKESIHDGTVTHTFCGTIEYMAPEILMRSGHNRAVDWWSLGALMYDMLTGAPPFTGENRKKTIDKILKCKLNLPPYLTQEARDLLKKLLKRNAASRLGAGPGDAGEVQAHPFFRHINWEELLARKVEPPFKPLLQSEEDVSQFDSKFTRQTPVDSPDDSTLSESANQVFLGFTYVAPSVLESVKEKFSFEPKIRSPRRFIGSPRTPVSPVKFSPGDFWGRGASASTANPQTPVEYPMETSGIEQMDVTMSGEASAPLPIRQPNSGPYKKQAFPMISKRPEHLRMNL

For the compound `CC(C)(CO)Nc1ccc(C(=O)Nc2cccc(S(=O)(=O)C3CCCC3)c2)c(N2CCC3(CC2)CC3)n1` [AM-0277], the remaining activity at 1 µM amounted to 100% on Plk 1 (setting [1]); 89% at c-MET (setting [1]); 100% at RPS6KB1 (setting [1]); 100% at BMPR1A (setting [1]); 88% at TNIK (setting [1]); 100% on Fyn (setting [1]). The remaining activity at 1 µM at DYRK1a (setting [1]) was found to be 100%; at PDGFRB (setting [1]) it was 94%; on Syk (setting [1]) it was 100%; at MEK5 (setting [1]) it was 86%.

Consider `CC(C)(C)NS(=O)(=O)c1cccc(NC(=O)c2ccc(S(=O)(=O)NC(C)(C)C)cc2N2CCC3(CC2)CC3)c1` [AM-1882], for which the remaining activity at 1 µM amounted to 100% on Plk 1 (setting [2]); 100% at c-MET (setting [2]); 61% on RPS6KB1 (setting [2]); 100% on BMPR1A (setting [2]); 82% at TNIK (setting [2]); 85.5% on Fyn (setting [2]). In addition, the remaining activity at 1 µM on DYRK1a (setting [2]) is 81%; at PDGFRB (setting [2]) it was 98%; at Syk (setting [2]), 89.5%; at MEK5 (setting [2]), 38.5%.

As for `C[C@@H]1CN(c2cccc(NC(=O)c3ccc(NS(=O)(=O)CCO)cc3N3CCC4(CC3)CC4)n2)CCO1` [AM-5308], the remaining activity at 1 µM at Plk 1 (setting [3]) is 95%; at c-MET (setting [3]) it was 92%; at RPS6KB1 (setting [3]) it was 94.5%; on BMPR1A (setting [3]), 93.5%; at TNIK (setting [3]), 52.5%; on Fyn (setting [3]), 92%. In addition, the remaining activity at 1 µM on DYRK1a (setting [3]) came out at 100%; on PDGFRB (setting [3]) it was 97.5%; on Syk (setting [3]), 79.5%; on MEK5 (setting [3]) it was 99.5%.
